Test results published in PubChem BioAssay AID504563 (Southern Research Specialized Biocontainment Screening …, 2011).

What follows are compounds tested on HIV-1 CXCR4-tropic in human PBMC, supernatant RT activity (assay: inhibitors of CXCR4-tropic HIV-1 replication in PBMCs, dose response, cell-based, human PBMC, set 2 (AID 504563)).

Row | Structure (SMILES) | IC50
1 | COc1ccc(Cn2c(O)cc3nn(-c4nc5ccccc5s4)c(=O)c-3c2C)cc1 | 2.86 µM
2 | Cc1c2c(=O)n(-c3nc4ccccc4s3)nc-2cc(O)n1Cc1cccnc1 | 1.51 µM
3 | Cc1c2c(=O)n(-c3nc4ccccc4s3)nc-2cc(O)n1Cc1ccncc1 | 1.99 µM
4 | Cc1c2c(=O)n(-c3nc4ccccc4s3)nc-2cc(O)n1Cc1ccccc1 | 3.21 µM
5 | Cc1c2c(=O)n(-c3nc4ccccc4s3)nc-2cc(O)n1CCC(C)C | 5.25 µM
6 | Cc1c2c(=O)n(-c3nc4ccccc4s3)nc-2cc(O)n1Cc1ccccc1Cl | 7.26 µM
7 | Cc1c2c(=O)n(-c3nc4ccccc4s3)nc-2cc(O)n1CCc1ccc(O)cc1 | 1.85 µM
8 | COc1ccc(CCn2c(O)cc3nn(-c4nc5ccccc5s4)c(=O)c-3c2C)cc1 | 12.6 µM
9 | Cc1c2c(=O)n(-c3nc4ccccc4s3)nc-2cc(O)n1CCc1cccs1 | 3.77 µM
10 | Cc1c2c(=O)n(-c3nc4ccccc4s3)nc-2cc(O)n1Cc1cccs1 | 1.83 µM
11 | Cc1c2c(=O)n(-c3nc4ccccc4s3)nc-2cc(O)n1Cc1ccc(F)cc1 | 3.98 µM
12 | COc1ccccc1Cn1c(O)cc2nn(-c3nc4ccccc4s3)c(=O)c-2c1C | 5.55 µM
13 | Cc1c2c(=O)n(-c3nc4ccccc4s3)nc-2cc(O)n1C1CC1 | 0.76 µM
